Experimental data reported in PubChem BioAssay AID1508612.

Experiment: passive permeability, PAMPA, ADME assay (AID 1508612)
Conditions: pH 7.4, 30.0 min, 50.0 µM

SMILES | Papp
COc1cc2c(c(OC)c1OC)-c1ccc(SC)c(=O)cc1C(N)CC2 (centres undefined) | > 1000 ×10⁻⁶ cm/s
CC(=O)c1c(C)[nH]c(C(=O)Nc2cccc(S(=O)(=O)N3CCCCC3)c2)c1C | > 1000 ×10⁻⁶ cm/s
O=C1Nc2ccccc2/C1=C/c1cc(Cl)c(O)c(Cl)c1 | 49 ×10⁻⁶ cm/s
O=S(=O)(c1ccccc1)N1CCN(c2nc(-c3ccc(Br)cc3)cs2)CC1 | 205 ×10⁻⁶ cm/s
Cc1ccc(S(=O)(=O)Nc2ccc(OC(F)(F)F)cc2C(=O)Nc2nc(-c3ccccc3)cs2)cc1 | 1.6 ×10⁻⁶ cm/s
COCCNC(=O)c1ccc(-c2ccc(N3CCCCC3)nc2)cc1 | > 1000 ×10⁻⁶ cm/s
CCCOC(c1cc2nccc(C(=O)O)c2[nH]1)c1ccccc1Cl (centres undefined) | 12.9 ×10⁻⁶ cm/s
Cc1ccc(S(=O)(=O)Nc2ccccc2C(=O)Nc2nc(-c3ccccc3)c(C)s2)cc1 | 30.1 ×10⁻⁶ cm/s
CC[C@H](NC(=O)c1c(O)c(-c2ccccc2)nc2ccccc12)c1ccccc1 | 298 ×10⁻⁶ cm/s
Cc1cc(N[S+](=O)([O-])c2ccc(NC(=O)Cc3ccc(F)c(F)c3)cc2)no1 | 6.43 ×10⁻⁶ cm/s
O=C1CCCC2=C1C(c1[nH]ncc1Cl)N=C(Nc1nc3cc([S+](=O)([O-])N4CCOCC4)ccc3o1)N2 (centres undefined) | 169 ×10⁻⁶ cm/s
CCNC(=O)c1coc(COc2ccc3c(c2)C(c2ccc(F)cc2)N(C(=O)CC(C)C)CC3)n1 (centres undefined) | 938 ×10⁻⁶ cm/s
Cc1nc([N+](=O)[O-])cn1-c1ccc([N+](=O)[O-])cc1 | 27.9 ×10⁻⁶ cm/s
O=C(CSc1nc(-c2ccc(F)cc2)[nH]c1-c1ccc(F)cc1)Nc1ccc2c(c1)OCCO2 | 11 ×10⁻⁶ cm/s
Cc1ccc(-c2cc(C(=O)Nc3ccc(S(=O)(=O)N(C)C)cc3)c3ccccc3n2)cc1C | 23 ×10⁻⁶ cm/s
Cc1ccnc(N=C(N)N2CCN(c3cccc(C(F)(F)F)c3)CC2)c1 | 383 ×10⁻⁶ cm/s
O=C(c1cnccn1)N1CCC2(CCCN(C(c3ccccc3)c3ccccc3)C2)CC1 | 3 ×10⁻⁶ cm/s
Cc1nnn(C)c1-c1cnc2c3ccc(C(C)(C)O)cc3n([C@H](c3ccccc3)C3CCOCC3)c2c1 | 746 ×10⁻⁶ cm/s
Cc1ccc(-c2cc(C(=O)Nc3ccc(S(=O)(=O)NCc4nccs4)cc3)c3ccccc3n2)cc1C | 6 ×10⁻⁶ cm/s
O=c1[nH]nc(Sc2ncc([N+](=O)[O-])s2)n1-c1ccc2c(c1)OCCO2 | 137 ×10⁻⁶ cm/s
COc1ccc2[nH]c(=O)c(-c3noc(-c4ccccc4)n3)cc2c1 | 760 ×10⁻⁶ cm/s
COc1ccc(-n2nc(C)c([C@@H]3C=C[C@@H](NCc4ccc(F)cc4)C3)c2C)cc1 | > 1000 ×10⁻⁶ cm/s
Fc1cc(Nc2nc(-c3ccncc3)nc3ccccc23)ccc1-c1cccnc1 | 5.4 ×10⁻⁶ cm/s
Nc1ccccc1OCCn1c(CCNC(=O)C2CCCCC2)nc2ccccc21 | 746 ×10⁻⁶ cm/s
Fc1cc(Nc2nc(-c3ccncc3)nc3ccccc23)ccc1C(F)(F)F | 641 ×10⁻⁶ cm/s
Cc1ccccc1-c1nc(NCc2ccc(-c3cccnc3)cc2)c2ccccc2n1 | 547 ×10⁻⁶ cm/s

SMILES | Papp
COC(=O)CNC(=O)c1nc(-c2ccc(Cl)nc2)c2cnccn12 | 103 ×10⁻⁶ cm/s
COCCNC(=O)c1ccc(Cn2c(=S)[nH]c3cc4c(cc3c2=O)OCO4)cc1 | 108 ×10⁻⁶ cm/s
COc1ccc2[nH]c(=O)c(-c3noc(-c4cccs4)n3)cc2c1 | 351 ×10⁻⁶ cm/s
COc1ncc(-c2n[nH]c3c2CC(=O)N(c2ccccc2)C3)cn1 | 33.5 ×10⁻⁶ cm/s
CCOc1ccc(CCN(C)C(=O)c2cc3sccc3n2Cc2ccccc2)cc1OCC | > 1000 ×10⁻⁶ cm/s
Cc1cc(C)c(C(=O)Nc2cccc([S+](=O)([O-])N3CCCC3)c2)[nH]1 | 948 ×10⁻⁶ cm/s
CC1(C)CCC(c2ccc(Cl)cc2)=C(CN2CCN(c3ccc(C(=O)NS(=O)(=O)c4ccc(N[C@H](CCN5CCOCC5)CSc5ccccc5)c(S(=O)(=O)C(F)(F)F)c4)cc3)CC2)C1 | 1.1 ×10⁻⁶ cm/s
CNC(=O)C1=C(C)NC(Nc2nc3ccccc3o2)=NC1c1[nH]ncc1Cl (centres undefined) | 17.6 ×10⁻⁶ cm/s
CN1Cc2c(cc(N3CCOCC3)nc2-c2ccccc2OC(F)(F)F)C1=O | > 1000 ×10⁻⁶ cm/s
Cn1ccc2c(C(=O)NCc3cccnc3)nc(-c3ccccc3C#N)cc21 | 732 ×10⁻⁶ cm/s
COc1cc2c(c(OC)c1OC)-c1ccc(OC)c(=O)cc1[C@@H](NC(C)=O)CC2 | 1.93 ×10⁻⁶ cm/s
O=C(Nc1ccc([S+](=O)([O-])Nc2nccs2)cc1)c1ccn[nH]1 | < 1 ×10⁻⁶ cm/s
CCN(CC)[S+](=O)([O-])c1cc(NC(=O)c2[nH]c(C)c(C(C)=O)c2C)ccc1OC | 645 ×10⁻⁶ cm/s
CCN1C(=O)c2ccccc2S(=O)c2ccc(C(=O)NCc3ccccc3)cc21 (centres undefined) | 775 ×10⁻⁶ cm/s
COc1cc(C2c3c(oc4cc(C)c(C)cc4c3=O)C(=O)N2CCCN2CCOCC2)ccc1O (centres undefined) | 118 ×10⁻⁶ cm/s
COc1cccc(CNc2ccc(S(=O)(=O)Nc3ccc(C)nc3)cc2)c1O | 973 ×10⁻⁶ cm/s
c1cc(-c2cc(-c3ccncc3)c3cncn3c2)c2cc[nH]c2c1 | 236 ×10⁻⁶ cm/s
Cc1cc(SCc2sc(-c3ccc(C(F)(F)F)cc3)nc2C)ccc1OCC(=O)O | 520 ×10⁻⁶ cm/s
Cc1ccc(S(=O)(=O)Nc2cnccc2C(=O)Nc2nc(-c3nc4ccccc4s3)cs2)cc1 | 740 ×10⁻⁶ cm/s
COc1ccc(-c2ccc3ncc(Nc4ccc(C(N)=O)cc4)n3n2)cc1OC | 149 ×10⁻⁶ cm/s
COc1ccc(C(=O)N[C@@H]2CCC[C@@H]2C(=O)N2CCC(Cc3ccccc3)CC2)cc1 | > 1000 ×10⁻⁶ cm/s
CCOc1ccc(CCNC(=O)c2cc3cnccc3n2Cc2cccc(C)n2)cc1OCC | 7.02 ×10⁻⁶ cm/s
NC(=O)COCCN1CCN(C(c2ccccc2)c2ccc(Cl)cc2)CC1 (centres undefined) | 359 ×10⁻⁶ cm/s
COc1cc(-c2csc(N3CCC(C(N)=O)CC3)n2)cc(OC)c1OC | 257 ×10⁻⁶ cm/s
O=C1Nc2ccc(Cl)cc2/C1=C\c1cc(Cl)c(O)c(Cl)c1 | 69.5 ×10⁻⁶ cm/s
CNC(=O)C1CCN(C(=O)c2ccc(-c3ncc4cnc(-c5ccccc5)cn34)cc2)CC1 | 15.4 ×10⁻⁶ cm/s

SMILES | Papp
CCOc1ccc(CCNC(=O)c2cc3ccncc3n2Cc2cccc(C)n2)cc1OCC | 3.77 ×10⁻⁶ cm/s
O=C(O)c1cccc(-c2noc(-c3ccccc3F)n2)c1 | 111 ×10⁻⁶ cm/s
NC(=O)C1CCN(c2ncc(-c3cccc(N4CCOCC4)c3)s2)CC1 | 374 ×10⁻⁶ cm/s
C[C@H]1CN(C(=O)c2nn(C)c3ccccc23)C[C@@H]1c1nc(-c2ccncc2)no1 | 907 ×10⁻⁶ cm/s
COC(=O)CNC(=O)c1nc(-c2ccc(Cl)cc2Cl)c2cnccn12 | > 1000 ×10⁻⁶ cm/s
CCOC(=O)C1CCN(C(=O)C2(NC(=O)Nc3ccc(F)cc3F)CCCCC2)CC1 | 177 ×10⁻⁶ cm/s
Cc1cc(-c2nnc3n2CCCCC3)c(C)n1-c1cccc2ccccc12 | > 1000 ×10⁻⁶ cm/s
N#CC1(c2ccc(NC(=O)c3cccnc3NCc3ccncc3)cc2)CCCC1 | > 1000 ×10⁻⁶ cm/s
Cc1cc(Br)ccc1NC(=O)C(NS(=O)(=O)c1cccs1)c1ccccc1 (centres undefined) | < 1 ×10⁻⁶ cm/s
O=C(Nc1ccc(S(=O)(=O)Nc2nccs2)cc1)c1cccc2ccccc12 | 11.9 ×10⁻⁶ cm/s
COC(=O)c1ccc(Nc2nc(-c3ccncc3)nc3ccccc23)cc1OC | 676 ×10⁻⁶ cm/s
CN(C)[C@@H]1CCN(c2cccc(Nc3nn4c(=O)c5ccccc5nc4s3)c2)C1 | 125 ×10⁻⁶ cm/s
CN(C)C(=O)c1nc(-c2ccc(Cl)cc2Cl)c2cnccn12 | > 1000 ×10⁻⁶ cm/s
NCC(=O)Nc1ccc(Cl)cc1C(=O)c1ccc[nH]1 | > 1000 ×10⁻⁶ cm/s
CCOc1ccc(CCNC(=O)c2cc3ccccc3o2)cc1OCC | > 1000 ×10⁻⁶ cm/s
CN(C(=O)CNC(=O)c1ccccc1OCC(=O)Nc1ccc(I)cc1)c1ccccc1 | > 1000 ×10⁻⁶ cm/s
COc1ccc(NC(=O)c2[nH]c(C)c(C(C)=O)c2C)cc1[S+](=O)([O-])Nc1ccccc1C#N | 71 ×10⁻⁶ cm/s
CC(=O)Nc1ccc(OCc2cn(CC(=O)c3ccc(O)cc3)nn2)cc1 | < 1 ×10⁻⁶ cm/s
Cc1cc(Nc2nc(-c3ccncc3)nc3ccccc23)n[nH]1 | 721 ×10⁻⁶ cm/s
O=C(Nc1nnc(-c2cccs2)o1)c1ccc(Cl)cc1 | 126 ×10⁻⁶ cm/s
COc1ccc2c(c1)CCc1c-2n[nH]c1C(=O)N1CCc2c(nc3cc(-c4ccccc4)[nH]n3c2=O)C1 | 15.8 ×10⁻⁶ cm/s
CCCNC(=O)c1ccc2c(c1)ncn2-c1cc(C)cc(C)c1 | > 1000 ×10⁻⁶ cm/s
NC(=O)C1CCN(c2nc(-c3ccc(Cl)cc3)cs2)CC1 | 191 ×10⁻⁶ cm/s
O=C(CCCCCCC(=O)Nc1ccccc1)NO | 63.4 ×10⁻⁶ cm/s
Cc1cc(-c2nnc3n2CCCCC3)c(C)n1-c1ccc(C(F)(F)F)cc1 | > 1000 ×10⁻⁶ cm/s
COc1ccc(CCN2C(=O)N(c3ccc(F)cc3)C(=O)C2CC(=O)Nc2ccc(F)c(F)c2)cc1 (centres undefined) | 719 ×10⁻⁶ cm/s

SMILES | Papp
CCc1ccc(NC(=O)c2[nH]c(C)c(C(C)=O)c2C)cc1S(=O)(=O)Nc1ccc(C#N)cc1 | 48.1 ×10⁻⁶ cm/s
O=C(Nc1ccccc1)C1CCN(c2nc(-c3ccc(Br)cc3)cs2)CC1 | 48.6 ×10⁻⁶ cm/s
COc1cc2c(cc1OCCCN1CCCC1)N=C(N)C21CCC1 | 6.08 ×10⁻⁶ cm/s
Fc1ccc(Nc2nc(-c3ccncc3)ncc2-c2ccccc2)cc1F | < 1 ×10⁻⁶ cm/s
COc1ccc(-c2ccc3ncc4c(c3c2)n(-c2ccc(N3CCNCC3)c(C(F)(F)F)c2)c(=O)n4C)cn1 | < 1 ×10⁻⁶ cm/s
CC(C)(C)OC(=O)N1CCN(c2ccc(NCc3ccc(-c4ccc(C#N)cc4)o3)cc2)CC1 | 338 ×10⁻⁶ cm/s
Cc1cc(N=Nc2ccc(S(=O)(=O)Nc3ccccn3)cc2)c(N)cc1O | 29.4 ×10⁻⁶ cm/s
Cc1ccnc(NC(=S)N2CCN(c3cccc(C(F)(F)F)n3)CC2)c1 | 866 ×10⁻⁶ cm/s
COc1ccc(-n2nc(C3CCN(C(=O)Cc4ccc(F)cc4)CC3)[nH]c2=O)cc1 | 540 ×10⁻⁶ cm/s
O=C(CCCN1CCC(n2c(=O)[nH]c3ccccc32)CC1)c1ccc(F)cc1 | 952 ×10⁻⁶ cm/s
O=C(c1cc2ccccc2[nH]1)N1CCc2c(n(Cc3cccnc3)n(CCc3ccccc3)c2=O)C1 | 381 ×10⁻⁶ cm/s
Cc1ccc(S(=O)(=O)Nc2cnccc2C(=O)Nc2nc(-c3ccc(Cl)cc3)cs2)cc1 | 38.2 ×10⁻⁶ cm/s
COc1cccc(CNc2ccc(S(=O)(=O)Nc3nccs3)cc2)c1O | 35.8 ×10⁻⁶ cm/s
NC(=O)Nc1cc(-c2ccc(CN3CCOCC3)cc2)sc1C(N)=O | 40.3 ×10⁻⁶ cm/s
COc1cc(-c2nc(-c3c(C)noc3C)cc3c2cc(C)n3CCN(C)C)ccn1 | > 1000 ×10⁻⁶ cm/s
NC(=O)C1CCN(c2ncc(-c3ccc(Cl)cc3)s2)CC1 | 714 ×10⁻⁶ cm/s
CC(C)(C)n1cnc2cc(C(=O)N3CCCCC3)ccc21 | 106 ×10⁻⁶ cm/s
COc1ccc(-c2cnc(N3CCC(C(N)=O)CC3)s2)cc1OC | 336 ×10⁻⁶ cm/s
CC(=O)Nc1nc(C)c(-c2ccc(Cl)c(S(=O)(=O)NCCO)c2)s1 | 12.1 ×10⁻⁶ cm/s
Fc1ccc(Oc2nc(-c3ccncc3)nc3ccccc23)cc1F | 16.5 ×10⁻⁶ cm/s
O=C(NCC1(c2nc(-c3ccccc3)cs2)CCOCC1)c1cccc(-c2noc(C(F)(F)F)n2)c1 | 665 ×10⁻⁶ cm/s
CCCOC(=O)c1ccc(Oc2c(-c3ccc(O)cc3O)n[nH]c2C)cc1 | > 1000 ×10⁻⁶ cm/s
Cn1ccc2c(C(=O)NCc3cccnc3)nc(-c3ccc(CO)cc3)cc21 | 317 ×10⁻⁶ cm/s
Cc1cc(NS(=O)(=O)c2ccc(NCCc3ccc(Cl)c(Cl)c3)cc2)no1 | 406 ×10⁻⁶ cm/s
CCOc1ccc(CCNC(=O)c2cc3c(s2)CCC3)cc1OCC | > 1000 ×10⁻⁶ cm/s
NC(=O)C1CCN(c2nc(-c3cc4ccccc4o3)cs2)CC1 | 66.2 ×10⁻⁶ cm/s
